TGI and GI50 data for eleven molecules are collected here from PubChem BioAssay (NCI).

Common to all, as to experiment: NCI anticancer screen, dose series, 48 h
Assay [1] deals with SN12C renal.
Assay [2] relates to KM12 colon.
Assay [3] has as its system M14 melanoma.
In assay [4] the test system is HOP-62 NSCLC.
The test system of assay [5] is COLO 205 colon.
The test system of assay [6] is SR leukemia.
The subject of assay [7] is OVCAR-3 ovarian.
Assay [8] concerns MALME-3M melanoma.
Assay [9] relates to SW-620 colon.
Assay [10] deals with OVCAR-4 ovarian.
In assay [11] the test system is HCC-2998 colon.
Assay [12] deals with ACHN renal.
Assay [13] concerns OVCAR-5 ovarian.

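Five concentrations, 48 hours, 96-well plates. At the GI50, growth is halved. TGI is the concentration that stops growth completely.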

Regarding `CCN(CC)CCCCC1CCN(CC(=O)N2c3ccccc3NC(=O)c3ccccc32)CC1`, the TGI is over 100 µM in assay [1]; over 100 µM in assay [2]; 39.7 µM in assay [3]; over 100 µM in assay [4]; over 100 µM in [5]; over 100 µM in [6]. For the same molecule, the TGI in assay [7], in [8], in [9], in [10] and in assay [11] was over 100 µM in each case.
Take `CCCCOC(=O)/C(CC(=O)C=C(C)C)=N\NS(=O)(=O)c1ccc(C)cc1`: the TGI in assay [1], in assay [2], in assay [3], in assay [4], in assay [12] and in assay [5] was over 100 µM throughout. For the same molecule, the TGI in [6] was 71.8 µM; in assay [7] it was over 100 µM; in assay [8] it was over 100 µM; in assay [10], over 100 µM; in assay [13], over 100 µM; in assay [11] it was over 100 µM.
In the case of `O=C(O)Cc1cc(=O)oc2cc(O)c(Cl)cc12`, the TGI in assay [1], in assay [2], in assay [3], in assay [4], in assay [12] and in assay [5] was over 100 µM each time. In addition, the TGI in assay [7], in [8], in assay [9], in assay [10], in assay [13] and in assay [11] was over 100 µM each time.
As for `Cc1ccc(S(=O)(=O)N/N=C2\C(=O)C3CC2C(Cl)C3Cl)cc1` (configuration not stated), the TGI in assay [1], in assay [3], in assay [4], in assay [12], in [5] and in assay [6] was over 100 µM throughout. In addition, the TGI in assay [7], in [8], in assay [9], in assay [10], in [13] and in assay [11] was over 100 µM each time.
Regarding `CCOc1ccc(NCC(=O)N2CC(=O)Nc3ccccc32)cc1`, the TGI in [1], in [2], in [3], in assay [4], in [12] and in assay [5] was over 100 µM each time. Besides, the TGI in assay [6], in assay [7], in [8], in assay [9], in assay [10] and in assay [13] was over 100 µM throughout. The molecule further had a TGI in assay [11] of over 100 µM.
Turning to `CCCOc1ccc(/C=C/c2cc(OC)c(OC)c(OC)c2)cc1`, the TGI is over 74 µM in [1]; over 25.4 µM in assay [2]; over 100 µM in assay [3]; over 100 µM in [4]; over 100 µM in assay [12]; 2.42 µM in [5]. Besides, the TGI is 31.2 µM in assay [6]; 84.8 µM in assay [8]; over 100 µM in assay [9]; over 72.9 µM in assay [10]; 72.9 µM in [13]; over 100 µM in assay [11]. In addition, the GI50 in assay [4] was 0.32 µM.
Regarding `CCN=C1NN=C(c2ccccc2)c2cc(Cl)ccc2N1`, the TGI was 88.5 µM in assay [1]; 31.1 µM in assay [2]; 33.5 µM in assay [3]; 48.2 µM in assay [4]; over 100 µM in [12]; 35.4 µM in [5]. For the same molecule, the TGI is 43.7 µM in [7]; 33.7 µM in [8]; 63.8 µM in assay [9]; over 100 µM in assay [10]; 60.9 µM in [13]; 34.4 µM in [11].
Regarding `O=C1/C(=C/c2cccc([N+](=O)[O-])c2)COc2ccccc21`, the TGI was 6.29 µM in assay [2]; 3.38 µM in [3]; over 30.4 µM in assay [4]; 8.04 µM in assay [12]; over 100 µM in [5]; 13.2 µM in assay [7]. Further, the TGI in assay [8] was over 50.6 µM; in assay [9], 2.09 µM; in assay [10], 6.28 µM; in assay [13], over 100 µM; in assay [11], over 23.4 µM.
As to `CC(=O)OC1[C@H]2c3cc4c(cc3CN3CCC(C[C@@H]1OC(C)=O)C23)OCO4` (some centres not stated), the TGI in assay [1], in assay [2], in assay [3], in assay [4], in assay [12] and in [5] was over 75 µM each time. The TGI in assay [6], in assay [7], in assay [8], in assay [9] and in assay [11] was over 75 µM in each case.
Take `N#CCCc1nc2ccc(Br)cc2c(=O)n1-c1ccc(O)c([N+](=O)[O-])c1`: the TGI in assay [1] is 38.6 µM; in assay [2], 34.5 µM; in [3], 44.7 µM; in assay [4], over 100 µM; in assay [12], over 100 µM; in assay [5] it was 47.9 µM. Also, the TGI in [7] was 41.4 µM; in assay [8], 33.3 µM; in assay [9] it was 46.8 µM; in assay [10], 38.8 µM; in [13] it was over 100 µM; in assay [11], 37.4 µM.
Take `CCc1cc(Cc2cc(CC)c(NC(=O)C3=CC(=O)CC(c4ccc(OC)cc4)O3)c(CC)c2Cl)c(Cl)c(CC)c1NC(=O)C1=CC(=O)CC(c2ccc(OC)cc2)O1` (configuration not stated): the TGI worked out at 39.5 µM in assay [1]; 26.9 µM in [2]; 31.6 µM in assay [3]; 46.5 µM in assay [4]; 32.1 µM in assay [12]; 31.6 µM in assay [5]. Also, the TGI in [6] came to 59.2 µM; in assay [7], 38.2 µM; in assay [8] it was 37.2 µM; in [9] it was 20.9 µM; in [10], 54.8 µM; in assay [13], 37.3 µM. The molecule further showed a TGI in [11] of 30.4 µM.
